Assay results: patent publication US6426369B1, “Oxethazaine as antimicrobial agent” (Eisai Co., Ltd., priority 1997, dated 2002)
≈ marks a conversion by molar mass, not a printed value.

Tests used:
H. pylori [1] = experiment: Antimicrobial activity test 3: oxethazaine in combination with compound (II), checker board method; format: cell-based; conditions: Helicobacter pylori
Text: In each Table, the concentration of oxethazaine is shown vertically, and the concentration of compound (II) is shown horizontally. In each Table, “−” indicates the inhibited growth of H. pylori (presence of antimicrobial activity), and “+” indicates the growth of H. pylori (absence of antimicrobial activity). […] It is assumed to be present when the MIC of either oxethazaine or PPI is reduced by ½ (when anti-H. pylori activity is not recognized when the concentrations of both oxethazaine and PPI are reduced to ¼, but anti-H. pylori activity is recognized when the concentration of one compound is reduced to ¼ and simultaneously the concentration of the other compound is reduced to ½.).

H. pylori [2] = experiment: Antimicrobial activity test 1: anti-H. pylori activity of a single compound (agar plate method); format: cell-based, Helicobacter pylori; conditions: Helicobacter pylori, read-out: MIC (growth inhibition)
Gram-positive bacteria = experiment: Antimicrobial activity (MIC) of oxethazaine and structure analogues against Gram-positive bacteria; format: cell-based
H. pylori [3] = experiment: Antimicrobial activity test 2: time for sterilizing H. pylori (viable cell count in Brucella broth); format: cell-based, Helicobacter pylori; conditions: NCTC 11637
Method: A solution of the test compound was added to Brucella broth containing 5% fetal bovine serum, cultured under slightly aerobic conditions at 37° C., and the vial microbe cell number in Brucella agar containing 7% horse blood was counted at predetermined intervals. The above compound (1) was dissolved in a 1% aqueous solution of […] (DMSO), and the above compound (2) was dissolved in water to prepare a solution of each test compound. “cfu” in Tables and Figures means “colony forming unit”.

H. pylori [4] = conditions: PPI alone, 30 mg/day, 8 weeks; cited from earlier work
H. pylori [5] = experiment: Antimicrobial activity test 6: oxethazaine in combination with an antibiotic (AMPC, CAM, RXM), checker board method; format: cell-based, Helicobacter pylori; conditions: combined use with oxethazaine; out of 15 strains (AMPC), 21 strains (CAM), 22 strains (RXM)
Text: The effect of combined use with amoxicillin (AMPC), clarithromycin (CAM) or roxithromycin (RXM) was examined in the same manner as in antimicrobial activity test 1, using the checker board method.

[6] = strain 90-397 (first line, r19)
[7] = strain 90-397 (second line, r25)

SMILES | MIC (H. pylori [2]; NCTC11637, strain NCTC11637) [µg/mL] | MIC (H. pylori [2]; NCTC11639, strain NCTC11639) [µg/mL] | MIC (H. pylori [2]; NCTC11916, strain NCTC11916) [µg/mL] | MIC (H. pylori [2]; strain 89-355) [µg/mL] | MIC (H. pylori [2]; strain 89-357) [µg/mL] | MIC (H. pylori [2]; strain 89-360) [µg/mL] | MIC (H. pylori [2]; strain 90-384) [µg/mL] | MIC (H. pylori [2]; strain 90-388 (1)) [µg/mL] | MIC (H. pylori [2]; strain 90-388) [µg/mL] | MIC (H. pylori [2]; strain 90-390 (1)) [µg/mL] | MIC (H. pylori [2]; strain 90-390) [µg/mL] | MIC (H. pylori [2]; strain 90-392) [µg/mL] | MIC (H. pylori [2]; [6]) [µg/mL] | MIC (H. pylori [2]; [7]) [µg/mL] | MIC (H. pylori [2]; strain 90-407) [µg/mL] | MIC (H. pylori [2]; strain 90-411) [µg/mL] | MIC (H. pylori [2]; strain 90-414 (1)) [µg/mL] | MIC (H. pylori [2]; strain 90-414) [µg/mL] | MIC (H. pylori [2]; strain 90-428) [µg/mL] | MIC (H. pylori [2]; strain EH12) [µg/mL] | also measured
COCCCOc1ccnc(CSc2nc3ccccc3[nH]2)c1C [Compound (II), 2-[4-(3-methoxypropoxy)-3-methylpyridine-2-yl]methylthio-1H-benzimidazole] | 1.56 (≈ 4.54 µM) | 0.8 (≈ 2.33 µM) | 1.56 (≈ 4.54 µM) | 1.56 (≈ 4.54 µM) | 0.8 (≈ 2.33 µM) | 1.56 (≈ 4.54 µM) | 1.56 (≈ 4.54 µM) | 0.8 (≈ 2.33 µM) | 1.56 (≈ 4.54 µM) | 0.8 (≈ 2.33 µM) | 0.8 (≈ 2.33 µM) | 0.8 (≈ 2.33 µM) | 1.56 (≈ 4.54 µM) | 0.8 (≈ 2.33 µM) | 1.56 (≈ 4.54 µM) | 0.8 (≈ 2.33 µM) | 0.8 (≈ 2.33 µM) | 0.8 (≈ 2.33 µM) | 1.56 (≈ 4.54 µM) | 0.8 (≈ 2.33 µM) | MIC (H. pylori [1]; NCTC11637, NCTC 11637): 1.56 µg/mL; MIC (H. pylori [1]; NCTC11639, NCTC 11639): 0.8 µg/mL; MIC (H. pylori [2]; strain 89-360 (1)): 1.56 µg/mL (≈ 4.54 µM); MIC (H. pylori [2]; strain 90-407 (1)): 0.8 µg/mL (≈ 2.33 µM); MIC (H. pylori [2]; strain EH13): 0.8 µg/mL (≈ 2.33 µM); MIC (H. pylori [2]; strain EH16): 0.8 µg/mL (≈ 2.33 µM); MIC (H. pylori [2]; strain EH26): 1.56 µg/mL (≈ 4.54 µM)
CCN(CC)CCOC(=O)c1ccc(N)cc1.Cl [(C)] |  |  |  |  |  |  |  |  |  |  |  |  |  |  |  |  |  |  |  |  | antimicrobial activity (MIC) (Gram-positive bacteria; E. faecalis RIMD 3116001): >100 µg/mL; antimicrobial activity (MIC) (Gram-positive bacteria; S. aureus FDA 209-P): >100 µg/mL; antimicrobial activity (MIC) (Gram-positive bacteria; S. epidermidis ATCC 12228): >100 µg/mL
CC1(C)S[C@@H]2[C@H](NC(=O)[C@H](N)c3ccccc3)C(=O)N2[C@H]1C(=O)O [ampicillin] |  |  |  |  |  |  |  |  |  |  |  |  |  |  |  |  |  |  |  |  | Viable microbe cell number (H. pylori [3]; 1 MIC, 0 h): 6.25 log10cfu/ml; Viable microbe cell number (H. pylori [3]; 1 MIC, 3 h): 5.51 log10cfu/ml; Viable microbe cell number (H. pylori [3]; 1 MIC, 6 h): 4.49 log10cfu/ml; Viable microbe cell number (H. pylori [3]; 1 MIC, 24 h): 3.48 log10cfu/ml; Viable microbe cell number (H. pylori [3]; 2 MIC, 0 h): 6.25 log10cfu/ml; Viable microbe cell number (H. pylori [3]; 2 MIC, 3 h): 5.30 log10cfu/ml; Viable microbe cell number (H. pylori [3]; 2 MIC, 6 h): 4.41 log10cfu/ml; Viable microbe cell number (H. pylori [3]; 2 MIC, 24 h): 3.00 log10cfu/ml; Viable microbe cell number (H. pylori [3]; 4 MIC, 0 h): 6.25 log10cfu/ml; Viable microbe cell number (H. pylori [3]; 4 MIC, 3 h): 4.95 log10cfu/ml; Viable microbe cell number (H. pylori [3]; 4 MIC, 6 h): 4.20 log10cfu/ml; Viable microbe cell number (H. pylori [3]; 4 MIC, 24 h): 2.48 log10cfu/ml
CCOC(=O)c1ccc(NC(=O)CN2CCCCC2)cc1 [(B)] |  |  |  |  |  |  |  |  |  |  |  |  |  |  |  |  |  |  |  |  | antimicrobial activity (MIC) (Gram-positive bacteria; E. faecalis RIMD 3116001): >100 µg/mL; antimicrobial activity (MIC) (Gram-positive bacteria; S. aureus FDA 209-P): >100 µg/mL; antimicrobial activity (MIC) (Gram-positive bacteria; S. epidermidis ATCC 12228): >100 µg/mL
CCOC(=O)c1ccc(N)cc1 [(A)] |  |  |  |  |  |  |  |  |  |  |  |  |  |  |  |  |  |  |  |  | antimicrobial activity (MIC) (Gram-positive bacteria; E. faecalis RIMD 3116001): >100 µg/mL; antimicrobial activity (MIC) (Gram-positive bacteria; S. aureus FDA 209-P): >100 µg/mL; antimicrobial activity (MIC) (Gram-positive bacteria; S. epidermidis ATCC 12228): >100 µg/mL
COc1ccc2[nH]c([S+]([O-])Cc3ncc(C)c(OC)c3C)nc2c1 (stereo not drawn) [Compound (III), omeprazole] | 50 (≈ 145 µM) | 25 (≈ 72.4 µM) | 50 (≈ 145 µM) | 25 (≈ 72.4 µM) | 50 (≈ 145 µM) | 50 (≈ 145 µM) | 50 (≈ 145 µM) | 25 (≈ 72.4 µM) | 50 (≈ 145 µM) | 25 (≈ 72.4 µM) | 50 (≈ 145 µM) | 25 (≈ 72.4 µM) | 25 (≈ 72.4 µM) | 25 (≈ 72.4 µM) | 25 (≈ 72.4 µM) | 25 (≈ 72.4 µM) | 25 (≈ 72.4 µM) | 50 (≈ 145 µM) | 50 (≈ 145 µM) | 25 (≈ 72.4 µM) | MIC (H. pylori [2]; strain EH13): 25 µg/mL (≈ 72.4 µM); MIC (H. pylori [2]; strain EH16): 25 µg/mL (≈ 72.4 µM); MIC (H. pylori [2]; strain EH26): 25 µg/mL (≈ 72.4 µM)
Cc1c(OCC(F)(F)F)ccnc1C[S+]([O-])c1nc2ccccc2[nH]1 (stereo not drawn) [Compound (IV), lansoprazole] | 12.5 (≈ 33.8 µM) | 3.13 (≈ 8.47 µM) | 6.25 (≈ 16.9 µM) | 3.13 (≈ 8.47 µM) | 6.25 (≈ 16.9 µM) | 6.25 (≈ 16.9 µM) | 3.13 (≈ 8.47 µM) | 6.25 (≈ 16.9 µM) | 3.13 (≈ 8.47 µM) | 6.25 (≈ 16.9 µM) | 3.13 (≈ 8.47 µM) | 6.25 (≈ 16.9 µM) | 3.13 (≈ 8.47 µM) | 6.25 (≈ 16.9 µM) | 3.13 (≈ 8.47 µM) | 3.13 (≈ 8.47 µM) | 6.25 (≈ 16.9 µM) | 6.25 (≈ 16.9 µM) | 6.25 (≈ 16.9 µM) | 3.13 (≈ 8.47 µM) | degree of efficacy for H. pylori therapy (H. pylori [4]): 5%; MIC (H. pylori [2]; strain 89-360 (1)): 6.25 µg/mL (≈ 16.9 µM); MIC (H. pylori [2]; strain 90-407 (1)): 6.25 µg/mL (≈ 16.9 µM); MIC (H. pylori [2]; strain EH13): 3.13 µg/mL (≈ 8.47 µM); MIC (H. pylori [2]; strain EH16): 3.13 µg/mL (≈ 8.47 µM); MIC (H. pylori [2]; strain EH26): 6.25 µg/mL (≈ 16.9 µM)
CC1(C)S[C@@H]2[C@H](NC(=O)[C@H](N)c3ccc(O)cc3)C(=O)N2[C@H]1C(=O)O [Amoxicillin, amoxicillin] |  |  |  |  |  |  |  |  |  |  |  |  |  |  |  |  |  |  |  |  | additive effect, number of strains (H. pylori [5]): 10 strains/; synergism, number of strains (H. pylori [5]): 0 strains/
